# Reference: patent US20260167638A1, “PHARMACEUTICAL COMPOUND, SALTS THEREOF, FORMULATIONS THEREOF, AND METHODS OF MAKING AND USING SAME” (Genentech, Inc., priority 2018, published 2026)
# Several values for one entry are separate records, joined by “and”; a condition that tells them apart may be missing. Identical values can stand only once.
# How the values were obtained:
# [1] = Water sorption / dynamic vapor sorption (DVS) hygroscopicity; assay type: physicochemical
# Experimental: The pKa value of Compound I free base was calculated (ACD Labs pKa DB, v10.0) as 2.12±0.33. Therefore, Compound I free base was considered as a very weak base that could be protonated by strong acids. […] A sample of Compound I free base was analyzed by powder x-ray diffraction and found to be crystalline without any readily detectable amorphous content. […] (onset temperature).
# The maximum water uptake for the amorphous salt was about 40% whereas the maximum water uptake for the crystalline di-hydrochloride salt was higher, with about 54% uptake.
# The hygroscopic nature of the besylate salt was examined by dynamic vapor sorption analysis (DVS). […] Below 80% relative humidity not much water was adsorbed.
# [2] = Solubility in pure water at 25° C. with PXRD of solid residues; assay type: physicochemical
# Experimental: Using a similar strategy as described above, these salts were prepared by evaporation from a solution of free base and acid in a solvent (e.g., methanol-dichloromethane 1:1, ethyl acetate-dichloromethane 1:2, isopropanol, and the like). If necessary, an amorphous salt produced in this way was crystallized by stirring the amorphous material in an appropriate solvent (e.g., ethyl acetate, acetonitrile, and the like).
# [3] = Example 19 crossover pharmacokinetics of four oral tablet formulations in fasted dogs; assay type: in vivo, beagle dogs; conditions: Example 19, fasted dogs, 200 mg tablet PO; for concentration at 1 h: read-out: Plasma concentration of Compound I at 1 hour; for concentration at 24 h: read-out: Plasma concentration of Compound I at 24 hours
# Experimental: (§1) Pharmacokinetics parameters of formulations of Compound I and its salts in dogs were determined by orally administering a test formulation tablet at 200 mg of active (Compound I or salt) per dog.
# (§2) Blood samples were taken at various times after administration, plasma prepared, and submitted to analysis for parent drug using a qualified LC-MS-MS assay. Pharmacokinetics parameters derived from the plasma analytical data were determined using non-compartmental analysis.
# Pharmacokinetics of Compound I was determined in pentagastrin-pretreated male beagle dogs following a single oral (PO) administration at 200 mg/tablet/dog in a 4-phase crossover study with a washout period of at least 7 days in between each phase. Five male non-naive purebred beagle dogs were used in each phase of study. All dogs were pretreated with pentagastrin (6 μg/kg intramuscular administrations) approximately 30 minutes before administration of test article.
# Four tablet formulations of test article were assessed, each containing 200 mg test article (free base equivalent). Animals were fasted overnight prior to PO dosing through approximately 4 hours postdose. The tablet dose was administered orally, followed by approximately 10 mL of RO (reverse osmosis) water. Phase 1 animals were given tablets containing Compound I in nanosuspension formulation as described above, phase 2 animals were given tablets containing Compound I in jet-milled form as described above, and phase 4 animals received tablets containing Compound I mono-tosylate salt as described above. In phase 3, tablets including an amorphous solid dispersion as described above were crushed and suspended in water, then dosed to the animals. Each animal received one triturated tablet, which was administered orally by gavage as an aqueous suspension formulation. Blood samples were collected predose and at 0.25, 0.5 1, 2, 4, 8, 24, 36 and 48 hours after the oral dose. Plasma was harvested, and the concentration of Compound I in each sample was determined by a non-validated LC/MS/MS assay. The assay limit of quantitation was 1.02 to 5.1 ng/mL for Compound I.
# Mean Compound I concentrations measured in plasma were used to construct semi-logarithmic plasma concentration-time curves (FIG. 13). Pharmacokinetic analysis was performed using a non-compartmental method.
# [4] = Example 20 crossover pharmacokinetics of two oral tablet formulations in dogs under fed conditions; assay type: in vivo, beagle dogs; parameters: Plasma concentration of Compound I at 24 hours / Plasma concentration of Compound I at 36 hours / Plasma concentration of Compound I at 0.5 hours / Plasma concentration of Compound I at 1 hour / Plasma concentration of Compound I at 2 hours: unit: ng/mL; conditions: 200 mg tablet PO
# Experimental: as §1, §2
# Pharmacokinetics of Compound I were determined in pentagastrin-pretreated male beagle dogs following a single oral (PO) administration at 200 mg/tablet/dog in a 2-phase crossover study with a washout period of at least 7 days in between each phase. Six male, non-naive, purebred beagle dogs were used in each phase of the 2-phase crossover study. All dogs were pretreated with pentagastrin (6 μg/kg intramuscular administrations) approximately 30 minutes before test article administration.
# Two tablet formulations (nanosuspension and mono-tosylate salt, as described above) of test article were assessed. Phase 1 animals were given tablets containing Compound I nanosuspension. Phase 2 animals were given tablets containing Compound I mono-tosylate salt. Animals in both phases were fasted overnight through approximately 4 hours postdose, and received a 100-mL volume of homogenized Food and Drug Administration (FDA) high fat diet by oral gavage at approximately 30 minutes prior to test article administration, followed by a 7 to 10-mL flush with water. Blood samples were collected pre-dose and at 0.25. 0.5, 1. 2. 4. 8, 24, 36, and 48 hours after the oral dose. Plasma was harvested, and the concentration of Compound I in each plasma sample was determined by an LC/MS/MS assay. The assay lower limit of quantitation was 20 ng/mL for Compound I.
# Mean Compound I concentrations measured in plasma were used to construct semi-logarithmic plasma concentration-time curves (FIG. 14). Pharmacokinetic analysis was performed using non-compartmental methods.
# [5] = individual subjects, LOQ 1.02 to 5.1 ng/mL, mono-tosylate salt
# [6] = individual subjects, mono-tosylate salt
# [7] = male, beagle, dog, plasma, po, 200 mg/tablet/dog, individual subjects, LOQ 1.02 to 5.1 ng/mL
# [8] = male, beagle, dog, plasma, po, 200 mg/tablet/dog, mean, LOQ 1.02 to 5.1 ng/mL
# [9] = Example 20, fed dogs (high fat diet), individual subjects, mono-tosylate salt
# [10] = Example 20, fed dogs, individual subjects, LLOQ 20 ng/mL, mono-tosylate salt
# [11] = male, beagle, dog, plasma, po, 200 mg, Example 20, fed dogs (high fat diet), mean
smiles,measurement,setting,value
"Cc1ccc(S(=O)(=O)O)cc1.Cn1cc(-c2cn(-c3ccc(OC(F)(F)F)cc3)c(=O)c3ncn(C)c23)cn1 [mono-tosylate, 1-methyl-7-(1-methyl-1H-pyrazol-4-yl)-5-(4-(trifluoromethoxy)phenyl)-1,5-dihydro-4H-imidazo[4,5-c]pyridin-4-one, mono-tosylate salt]",reversibility of water adsorption within the timeframe of observation,[1],essentially reversible
same,pH (24 hrs),"[2]; pH of solubility sample, pure water, 25° C., 24 hours",1.53
same,pH (1 hr),"[2]; pH of solubility sample, pure water, 25° C., one hour",1.47
same,S 24 hrs,"[2]; pure water, 25° C., 24 hours equilibration",1.24 mg/mL
same,S 1 hr,"[2]; pure water, 25° C., one hour",2.54 mg/mL
same,solubility at 24 h,"[2]; water, 25 °C, water, thermodynamic from solid, Table 5: free base and crystalline salt forms",1240 µg/mL
same,Plasma concentration of Compound I at 0.25 hours,[3]; [5],309 and 1500 and 2900 and 39.7 and 571
same,Plasma concentration of Compound I at 0.5 hours,[3]; [5],3650 and 3910 and 5440 and 726 and 3520
same,Plasma concentration of Compound I at 1 hour,[3]; [5],5470 and 7310 and 4880 and 5360
same,Plasma concentration of Compound I at 2 hours,[3]; [5],9370 and 10200 and 5680 and 5450 and 4130
same,Plasma concentration of Compound I at 4 hours,[3]; [5],8040 and 12900 and 4590 and 4840 and 3480
same,Plasma concentration of Compound I at 8 hours,[3]; [5],3650 and 6910 and 2500 and 3060 and 1630
same,Plasma concentration of Compound I at 24 hours,[3]; [5],597 and BLQ (3×)
same,Plasma concentration of Compound I at 36 hours,[3]; [5],11.0 and 17.8 and BLQ (2×) and 842
same,Plasma concentration of Compound I at 48 hours,[3]; [5],BLQ (3×) and 200 and 10.1
same,AUC0-last,[3]; [6],76500 ng·h/mL and 116000 ng·h/mL and 44300 ng·h/mL and 122000 ng·h/mL and 34200 ng·h/mL
same,AUC0-rt,[3]; [6],76600 ng·h/mL and 116000 ng·h/mL and 44400 ng·h/mL and 123000 ng·h/mL and 34300 ng·h/mL
same,Cmax,[3]; [6],9450 ng/mL and 12900 ng/mL and 7310 ng/mL and 5450 ng/mL and 5360 ng/mL
same,tmax,[3]; [6],1.00 h
same,AUC(0-t),"[3]; male, beagle, dog, plasma, po, 200 mg, mean",78500 ng·h/mL
same,AUC,"[3]; male, beagle, dog, plasma, po, 200 mg, mean, read-out: AUC0-rt",78900 ng·h/mL
same,Cmax,"[3]; male, beagle, dog, plasma, po, 200 mg, mean, read-out: Cmax",8100 ng/mL
same,tmax,"[3]; male, beagle, dog, plasma, po, 200 mg, mean, read-out: tmax",1.8 h
same,concentration at 1 h,[3]; [7],9450 ng/mL
same,concentration at 24 h,[3]; [7],352 ng/mL
same,concentration at 0.25 h,"[3]; male, beagle, dog, plasma, po, 200 mg/tablet/dog, mean, LOQ 1.02 to 5.1 ng/mL, read-out: Plasma concentration of Compound I at 0.25 hours",1060 ng/mL
same,concentration at 0.5 h,"[3]; male, beagle, dog, plasma, po, 200 mg/tablet/dog, mean, LOQ 1.02 to 5.1 ng/mL, read-out: Plasma concentration of Compound I at 0.5 hours",3450 ng/mL
same,concentration at 1 h,[3]; [8],6490 ng/mL
same,concentration at 2 h,"[3]; male, beagle, dog, plasma, po, 200 mg/tablet/dog, mean, LOQ 1.02 to 5.1 ng/mL, read-out: Plasma concentration of Compound I at 2 hours",6960 ng/mL
same,concentration at 4 h,"[3]; male, beagle, dog, plasma, po, 200 mg/tablet/dog, mean, LOQ 1.02 to 5.1 ng/mL, read-out: Plasma concentration of Compound I at 4 hours",6780 ng/mL
same,concentration at 8 h,"[3]; male, beagle, dog, plasma, po, 200 mg/tablet/dog, mean, LOQ 1.02 to 5.1 ng/mL, read-out: Plasma concentration of Compound I at 8 hours",3550 ng/mL
same,concentration at 24 h,[3]; [8],1070 ng/mL
same,concentration at 36 h,"[3]; male, beagle, dog, plasma, po, 200 mg/tablet/dog, mean, LOQ 1.02 to 5.1 ng/mL, read-out: Plasma concentration of Compound I at 36 hours",290 ng/mL
same,concentration at 48 h,"[3]; male, beagle, dog, plasma, po, 200 mg/tablet/dog, mean, LOQ 1.02 to 5.1 ng/mL, read-out: Plasma concentration of Compound I at 48 hours",105 ng/mL
same,AUC0-last,[4]; [9],59000 ng·h/mL and 75300 ng·h/mL and 68500 ng·h/mL and 26200 ng·h/mL and 16000 ng·h/mL and 47500 ng·h/mL
same,AUC0-rt,[4]; [9],59700 ng·h/mL and 70100 ng·h/mL and 26200 ng·h/mL and 47700 ng·h/mL
same,Cmax,[4]; [9],5340 ng/mL and 8590 ng/mL and 5160 ng/mL and 4930 ng/mL and 3490 ng/mL and 5080 ng/mL
same,Plasma concentration of Compound I at 48 hours,"[4]; Example 20, fed dogs, individual subjects, LLOQ 20 ng/mL",BLQ
same,Plasma concentration of Compound I at 0.25 hours,[4]; [10],BLQ (4×) and 381 and 41.0
same,Plasma concentration of Compound I at 1 hour,[4]; [10],107 and 6070 and 2340 and 3330 and 1200 and 97.9
same,Plasma concentration of Compound I at 2 hours,[4]; [10],2010 and 8270 and 5160 and 4930 and 2020 and 5080
same,Plasma concentration of Compound I at 4 hours,[4]; [10],5340 and 8590 and 4020 and 3770 and 3490 and 4530
same,Plasma concentration of Compound I at 8 hours,[4]; [10],3240 and 4900 and 1480 and 1020 and 1200 and 2920
same,Plasma concentration of Compound I at 48 hours,"[4]; Example 20, fed dogs, mean, LLOQ 20 ng/mL",BLQ
same,tmax,"[4]; male, beagle, dog, plasma, po, 200 mg, Example 20, fed dogs (high fat diet), individual subjects",4 h
same,AUC(0-t),[4]; [11],48800 ng·h/mL
same,tmax,[4]; [11],3 h
same,AUC,"[4]; male, beagle, dog, plasma, po, 200 mg, Example 20, fed dogs (high fat diet), mean, read-out: AUC0-rt",50900 ng·h/mL
same,Cmax,"[4]; male, beagle, dog, plasma, po, 200 mg, Example 20, fed dogs (high fat diet), mean, read-out: Cmax",5430 ng/mL
same,concentration at 0.25 h,"[4]; male, beagle, dog, plasma, po, 200 mg/tablet/dog, Example 20, fed dogs, mean, LLOQ 20 ng/mL, read-out: Plasma concentration of Compound I at 0.25 hours",70.3 ng/mL
same,concentration at 0.5 h,"[4]; male, beagle, dog, plasma, po, 200 mg/tablet/dog, Example 20, fed dogs, mean, LLOQ 20 ng/mL, read-out: Plasma concentration of Compound I at 0.5 hours",717 ng/mL
same,concentration at 1 h,"[4]; male, beagle, dog, plasma, po, 200 mg/tablet/dog, Example 20, fed dogs, mean, LLOQ 20 ng/mL, read-out: Plasma concentration of Compound I at 1 hour",2190 ng/mL
same,concentration at 2 h,"[4]; male, beagle, dog, plasma, po, 200 mg/tablet/dog, Example 20, fed dogs, mean, LLOQ 20 ng/mL, read-out: Plasma concentration of Compound I at 2 hours",4580 ng/mL
same,concentration at 4 h,"[4]; male, beagle, dog, plasma, po, 200 mg/tablet/dog, Example 20, fed dogs, mean, LLOQ 20 ng/mL, read-out: Plasma concentration of Compound I at 4 hours",4960 ng/mL
same,concentration at 8 h,"[4]; male, beagle, dog, plasma, po, 200 mg/tablet/dog, Example 20, fed dogs, mean, LLOQ 20 ng/mL, read-out: Plasma concentration of Compound I at 8 hours",2460 ng/mL
same,concentration at 24 h,"[4]; male, beagle, dog, plasma, po, 200 mg/tablet/dog, Example 20, fed dogs, mean, LLOQ 20 ng/mL, read-out: Plasma concentration of Compound I at 24 hours",847 ng/mL
same,concentration at 36 h,"[4]; male, beagle, dog, plasma, po, 200 mg/tablet/dog, Example 20, fed dogs, mean, LLOQ 20 ng/mL, read-out: Plasma concentration of Compound I at 36 hours",79.7 ng/mL
